For assay [1], the system named is Enterococcus. The experiment in a line: 16S sequencing of stool at day 21 post-transplantation: Enterococcus monodomination (SYN-004). In kind it is in vivo, 129S1 mice. The protocol: This experiment was conducted to assess the effect of SYN-004 administration on modulating and/or reducing Enterococcus monodomination. The experiment was also designed to assess whether SYN-004 administration could prevent the decrease of microbiome diversity in lethally irradiated mice having undergone a bone marrow transplantation.
129S1 mice were lethally irradiated and then transplanted with bone marrow cells (B6 donor bone marrow) at 5M and defined doses of splenic T lymphocytes from C57BL/6 mice at 2M. The mice were divided in three cohorts: (1) a cohort that received administration of saline; (2) a cohort that received administration of piperacillin/tazobactam; and (3) a cohort that received administration of piperacillin/tazobactam (Zosyn, abbreviated as ZO) and SYN-004 (P3A; abbreviated as Blact).
Stool samples were collected at day 21 post-transplantation and 16S sequencing analysis was performed.

The nature of assay [2]: Piperacillin levels in mouse stool after s.c. piperacillin/tazobactam with or without oral P3A. In kind it is in vivo, mice. The following applies: piperacillin/tazobactam 500 mg/kg s.c. twice per day for two days + P3A liquid formulation 10 mg/kg oral gavage twice per day for two days; FIG. 1. On the procedure: Mice received a subcutaneous administration of 500 mg/kg piperacillin/tazobactam twice per day for two days. […] A control cohort of mice received neither piperacillin/tazobactam nor P3A via oral gavage.
After 2 days, mouse stool was evaluated for presence of piperacillin.

The subject of assay [3] is total bacteria. Put plainly: 16S sequencing of mouse stool: total bacteria copies per gram of stool. In kind it is in vivo, mice. The following applies: FIG. 3. On the procedure:
(§1) Mice received a subcutaneous administration of 125 mg/kg piperacillin/tazobactam twice per day for two days. […] A control cohort of mice received neither piperacillin/tazobactam nor P3A via oral gavage. Another control cohort of mice received P3A only.
16S sequencing analysis was also performed to evaluate the total bacteria copies present per gram of mouse stool.

For assay [4], the system named is 129S1 mice. The experiment in a line: Survival study of antibiotic-exacerbated GVHD after bone marrow transplantation (P3A). In kind it is in vivo. The following applies: BM+T cells; piperacillin/tazobactam 100 mg/kg s.c. + P3A 20 mg/kg oral gavage three times per week from day 10; endpoint 30 days post-BMT; FIG. 4. The protocol: This experiment was conducted to assess the effect of SYN-004 administration on protecting and/or reducing GVHD severity associated with bone marrow transplantation.
129S1 mice were lethally irradiated and then transplanted with bone marrow cells (B6 donor bone marrow) at 5M and defined doses of splenic T lymphocytes from C57BL/6 mice at 2M. Both of these mice share the MHC-type H2b and thus represent a clinically relevant MHC-matched transplantation model.

The test system of assay [5] is Firmicutes bacterial phylum. The experiment in a line: 16S sequencing of mouse stool: Firmicutes level, piperacillin/tazobactam with or without P3A. In kind it is in vivo, mice. The following applies: FIG. 2. On the procedure: as §1
Assay [6] concerns Enterococcus. Put plainly: 16S sequencing of mouse stool: Enterococcus monodomination, imipenem+cilastatin with or without SYN-006. The class given is in vivo, mice. The following applies: FIG. 8; for largest bars (genus) in 16S analysis, post-antibiotic: post-abx; for Enterococcus monodominance in stool: vs imipenem+cilastatin only. The protocol:
(§2) Next, experiments were conducted to assess the effect of SYN-006 (P2A) administration on modulating and/or reducing Enterococcus monodomination, and specifically, overgrowth of Enterococcus faecium, in imipenem-treated mice.
(§3) Mice received a subcutaneous administration of 100 mg/kg imipenem+cilastatin for two days, with stool samples collected on the third day. […] Stool samples were collected on day 3 and 16S sequencing analysis was performed.

For assay [7], the system named is Firmicutes bacterial phylum. The following applies: stool day 3, FIG. 7. The protocol:
Experiments were conducted to determine whether a liquid formulation of SYN-006 (e.g., a beta-lactamase in a phosphate-buffered saline solution) could be delivered to the small and large intestine of mice via oral gavage.
Mice received a subcutaneous administration of 100 mg/kg imipenem+cilastatin for two days, with stool samples collected on the third day.
On day 3, mouse stool was collected.

Assay [8] concerns Enterococcus faecium. The experiment in a line: Relative abundance of Enterococcus faecium in stool of imipenem-treated mice. The class given is in vivo. The following applies: imipenem+cilastatin 100 mg/kg s.c. alone or with P2A 1, 10, 50 mg/kg oral gavage; FIG. 9. The protocol: as §2, §3
Assay [9] has as its system 129S1 mice. Put plainly: Survival study of antibiotic-exacerbated GVHD after bone marrow transplantation (P2A). The class given is in vivo. The following applies: BM+T cells; imipenem+cilastatin 100 mg/kg s.c. + P2A 50 mg/kg oral gavage three times per week days 10-25; endpoint 40 days post-BMT; p=0.0096, Mantel-Cox test; FIG. 10. On the procedure: This experiment was conducted to assess the effect of SYN-006 (P2A) administration on protecting and/or reducing GVHD severity associated with bone marrow transplantation.
129S1 mice were lethally irradiated and then transplanted with bone marrow cells (B6 donor bone marrow) at 5M and defined doses of splenic T lymphocytes from C57BL/6 mice at 2M. Both of these mice share the MHC-type H2^b and thus represent a clinically relevant MHC-matched transplantation model.

The mark [10] stands for this setting: piperacillin/tazobactam 125 mg/kg s.c. + P3A 10 mg/kg oral gavage, twice per day for two days.
[11] abbreviates: piperacillin/tazobactam alone, 125 mg/kg s.c. twice per day for two days.

Read-outs that look alike come from different tables or passages of the source.

As to “SYN-004: beta-lactamase with the amino acid sequence of SEQ ID NO: 1; D276N relative to P1A”, the “largest bars (genus) in 16S analysis” value in [1] (FIG. 5, Zosyn+SYN-004) was “Clostridium”; in assay [1] (FIG. 6, BM (bone marrow) group, ZO+Blact), “Enterococcus in the first two bars from the left and Clostridium in the next two bars from the left”; in assay [1] (FIG. 6, BM+T cells group, ZO+Blact), “Clostridium”. Besides, the “Enterococcus monodominance in stool” value in assay [1] (piperacillin/tazobactam + SYN-004 vs piperacillin/tazobactam only, day 21 post-transplantation, FIG. 5 and 6) is “reduced Enterococcus monodominance”. In addition, the “amount of piperacillin in mouse stool” value in [2] is on record as “reduced”. Further, in assay [3] (setting [10]), the “total bacterial copies present in mouse stool” value is “decrease was reduced”. Also, in assay [4], the “survival (mortality), antibiotic-exacerbated GVHD” value is given as “reduced antibiotic-exacerbated GVHD”. In addition, in assay [5] (setting [10]), the “fold abundance of Firmicutes in mouse stool” value was “recovered and protected”.

For the molecule “imipenem+cilastatin [reference compound]”, the “largest bars (genus) in 16S analysis, post-antibiotic” value in assay [6] (imipenem group (no P2A)) is “Enterococcus”.

As to “piperacillin/tazobactam [reference compound]”, the “largest bars (genus) in 16S analysis” value in assay [1] (FIG. 5, Zosyn alone) is reported as “Enterococcus”; in assay [1] (FIG. 6, BM (bone marrow) group, ZO alone), “Enterococcus”; in [1] (FIG. 6, BM+T cells group, ZO alone) it was “Enterococcus”. In assay [3] (setting [11]), the “total bacterial copies present in mouse stool” value is “decreased”. For the same molecule, in assay [5] (setting [11]), the “abundance of Firmicutes in mouse stool” value is “reduced”.

B1: SYN-006: beta-lactamase polypeptide with the sequence of SEQ ID NO: 6 (protein)
chain: ETGTISISQLNKNVWVHTELGYFNGEAVPSNGLVLNTSKGLVLVDSSWDNKLTKELIEMVEKKFQKRVTDVIITHAHADRIGGITALKERGIKAHSTALTAELAKNSGYEEPLGDLQTITSLKFGNTKVETFYPGKGHTEDNIVVWLPQYQILAGGCLVKSAEAKDLGNVADAYVNEWSTSIENVLKRYGNINSVVPGHGEVGDKGLLLHTLDLLK
modifications: Synthetic polymer.
Take B1: the “largest bars (genus) in 16S analysis, post-antibiotic” value in [6] (imipenem+P2A (1 mg) group) is “Enterococcus”; in [6] (imipenem+P2A (10 mg) group) it was “Clostridium”; in assay [6] (imipenem+P2A (50 mg) group) it was “Lactobacillus and Clostridium”. The “Enterococcus monodominance in stool” value in assay [6] (imipenem+cilastatin 100 mg/kg s.c. + SYN-006 10 mg/kg oral gavage twice per day for two days) and in assay [6] (imipenem+cilastatin 100 mg/kg s.c. + SYN-006 50 mg/kg oral gavage twice per day for two days) was “reduced Enterococcus monodominance” in each case. In addition, the “fold abundance of Firmicutes in mouse stool” value is “recovered and protected” in [7] (imipenem+cilastatin 100 mg/kg s.c. for two days + P2A 10 mg/kg oral gavage twice per day); “recovered and protected” in [7] (imipenem+cilastatin 100 mg/kg s.c. for two days + P2A 50 mg/kg oral gavage twice per day). Further, the “overgrowth (relative abundance) of Enterococcus faecium in mouse stool” value in [8] was “prevents overgrowth of Enterococcus faecium”. For the same molecule, the “survival (mortality), antibiotic-exacerbated GVHD” value in [9] is reported as “reduced antibiotic-exacerbated GVHD”.

For the origin of these results see patent publication US20220218800A1, “BETA-LACTAMASE COMPOSITIONS FOR TREATMENT OF GRAFT VERSUS HOST DISEASE” (Synthetic Biologics, Inc., priority 2019, published 2022).
